The data set is described as follows: Measurement of stability (high-temperature, high-humidity and photostability tests; HPLC impurity content). Type of data set: physicochemical. Particulars: for total impurity / purity: 210 nm. As for the experimental part: An appropriate amount of the Complex (IA) sample (prepared from example 2) was weighed and tiled on a clean culture dish at a thickness of ≤5 mm, and analyzed under the following conditions:
The test sample was placed under a high temperature condition (60±2° C.) for 10 d, the relative indexes were measured at the fifth and tenth days. […] If no significant change, the test at 40° C. was not necessary.
The test sample was placed under a 25° C. and RH 90%±5% condition for 10 d, and the sample were measured at the fifth and tenth days. Test items should include a moisture-absorption weight gain. If weighting percentage of moisture absorption was more than 5%, the test should be carried out under a 25° C. and RH 75%±5% condition using the same method; If weighting percentage of moisture absorption was less than 5%, and other inspection items met the requirements, the test was not necessary. The constant humidity condition can be realized by adopting constant temperature humidity chamber or placing a saturated saline solution under a closed container. […]
The test sample was placed in light box or other suitable light vessel under a 4500 Lx±500 Lx of illuminance condition for 10 d, and the sample were measured at the fifth and tenth days.
The impurity content of the sample was calculated by the normalization method of peak area using an HPLC chromatographic instrument under the above condition, the analytic conditions were shown below:
The detection was performed on Agilent 1200DAD high pressure liquid chromatography spectrometer (Zorbax Eclipse Plus C18 150×4.6 mm chromatographic column).
The test condition of HPLC: the run time was 30 minutes (min); the column temperature was 35° C.; the detection was carried out at the wavelength of 210 nm and 225 nm;
Mobile phase: phase C: acetonitrile phase D: ultrapure water flow rate: 1.0 mL/min.
Gradient elution, the ratio of mobile phase was shown as table B.

[1] abbreviates: high humidity (25° C., RH 90%±5%), 5 d, HPLC.
The mark [2] stands for this setting: high humidity (25° C., RH 90%±5%), 10 d, HPLC.
[3] abbreviates: high-temperature (60±2° C.), 5 d, HPLC.
Setting [4] is: high-temperature (60±2° C.), 10 d, HPLC.
[5] abbreviates: illumination (4500 Lx±500 Lx), 5 d, HPLC.
Setting [6] is: illumination (4500 Lx±500 Lx), 10 d, HPLC.

Experimental findings from patent US10555930B2, “Complex of a glucopyranosyl derivative and preparation method and use thereof” (SUNSHINE LAKE PHARMA CO., LTD., priority 2015, dated 2020) are described below.

SMILES strings stand for the structures.

In the case of `CCOc1ccc(Cc2cc([C@]34OC[C@]([C@@H](C)O)(O3)[C@@H](O)[C@H](O)[C@H]4O)ccc2Cl)cc1` [compound (I-n) amorphism, (1R,2S,3S,4R,5S)-5-(4-chloro-3-(4-ethoxybenzyl)phenyl)-1-((1R)-1-hydroxyethyl)-6,8-dioxabicyclo[3.2.1]octane-2,3,4-triol], the total impurity is 0.25% (0 d, HPLC peak area normalization); 0.30% under setting [1]; 0.22% under setting [2]; 4.97% under setting [3]; 7.84% under setting [4]; 0.31% under setting [5]. The total impurity under setting [6] stood at 0.28%. The compound further showed a purity (0 d, HPLC) of 99.75%; a purity under setting [1] of 99.70%; a purity under setting [2] of 99.78%; a purity under setting [3] of 95.03%; a purity under setting [4] of 92.16%; a purity under setting [5] of 99.69%. Besides, the purity under setting [6] was 99.72%. The appearance result is recorded as “white bulk” (high humidity (25° C., RH 90%±5%), 5 d) and “white bulk” (high humidity (25° C., RH 90%±5%), 10 d). For the same compound, the “stability (summary in words)” value (high-temperature, high humidity or illumination for 10 d, listed as compound (I-n) in amorphism form) was “poor stability”.
